Test results as given in ChEMBL document CHEMBL5316338, “Discovery of Novel PTP1B Inhibitors with Once-Weekly Therapeutic Potential for Type 2 Diabetes: Design, Synthesis, and In Vitro and In Vivo Investigations of BimBH3 Peptide Analogues” (J Med Chem, 2023).
Numbered stars: 1 amine (or outer) side, 2 acyl side, 3 side chain; on linkers, the order of the positions; unused ones are H or OH. Square brackets hold non-standard residues; d marks the D form. Peptide text beside a SMILES is read from it. * marks the point of attachment. ξ: configuration not given here. C18 diacid = O=C(O)CCCCCCCCCCCCCCCCC(=O)*; Arachidoyl = CCCCCCCCCCCCCCCCCCCC(=O)*; γGlu = O=C(O)[C@H](CCC(=O)[*:2])N[*:1]; C14 diacid = O=C(O)CCCCCCCCCCCCC(=O)*; Pentanoyl(5-Ph) = O=C(CCCCc1ccccc1)*; C12 diacid = O=C(O)CCCCCCCCCCC(=O)*; Adipoyl = O=C(CCCCC(=O)[*:2])[*:1]; Glutaryl = O=C(CCCC(=O)[*:2])[*:1]; HOOC(CH2)6CO = O=C(O)CCCCCCC(=O)*; Malonyl = O=C(CC(=O)[*:2])[*:1]; Decanoyl = CCCCCCCCCC(=O)*; ξR = N=C(N)NCCCC(N)C(=O)O; Heptanoyl = CCCCCCC(=O)*; Octanoyl = CCCCCCCC(=O)*; Aun = NCCCCCCCCCCC(=O)O; Hexanoyl = CCCCCC(=O)*; Pentanoyl = CCCCC(=O)*; AEEA = NCCOCCOCC(=O)O; Propionyl = CCC(=O)*; Butyryl = CCCC(=O)*

Key:
[1] = biological target: T1, Tyrosine-protein phosphatase non-receptor type 1 (Homo sapiens, UniProt P18031); test: Inhibition of N-terminal His tagged recombinant human PTP1B expressed in Escherichia coli using pNPP as substrate assessed as substrate hydrolysis
T1 sequence (P18031 whole entry): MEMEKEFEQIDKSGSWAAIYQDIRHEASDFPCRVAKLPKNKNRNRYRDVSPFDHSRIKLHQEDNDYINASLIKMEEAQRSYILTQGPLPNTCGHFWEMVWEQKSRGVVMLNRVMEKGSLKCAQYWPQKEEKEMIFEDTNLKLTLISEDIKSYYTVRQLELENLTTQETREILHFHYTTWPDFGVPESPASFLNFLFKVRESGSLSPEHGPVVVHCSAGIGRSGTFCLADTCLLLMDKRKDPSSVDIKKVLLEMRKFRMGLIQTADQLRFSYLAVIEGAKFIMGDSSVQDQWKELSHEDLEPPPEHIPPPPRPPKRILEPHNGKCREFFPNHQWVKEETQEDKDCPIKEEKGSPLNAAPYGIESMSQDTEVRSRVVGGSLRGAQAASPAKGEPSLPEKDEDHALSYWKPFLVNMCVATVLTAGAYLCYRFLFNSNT

[2] = biological target: T2, Tyrosine-protein phosphatase non-receptor type 1 (Homo sapiens) (UniProt P18031); test: Inhibition of N-terminal His tagged recombinant human PTP1B expressed in Escherichia coli using pNPP as substrate assessed as substrate hydrolysis at 40 umol/L relative to control; details: dose 40.0 µmol/L
T2 sequence (whole entry): T1 sequence (P18031 whole entry)

Row | Compound | IC50 [1] | inhibition [2]
1 | CC[C@H](C)[C@H](NC(=O)CCCCCCCCC(=O)O)C(=O)N[C@@H](C)C(=O)N[C@@H](CCC(N)=O)C(=O)N[C@@H](CCC(=O)O)C(=O)N[C@@H](CC(C)C)C(=O)N[C@@H](CCCNC(=N)N)C(=O)N[C@@H](CCCNC(=N)N)C(=O)N[C@H](C(=O)NCC(=O)N[C@H](CC(=O)O)C(=O)N[C@@H](CCC(=O)O)C(=O)N[C@@H](Cc1ccccc1)C(=O)O)[C@@H](C)CC | – | < 50%
2 | CC[C@H](C)[C@H](NC(=O)CCCCC(=O)O)C(=O)N[C@@H](C)C(=O)N[C@@H](CCC(N)=O)C(=O)N[C@@H](CCC(=O)O)C(=O)N[C@@H](CC(C)C)C(=O)N[C@@H](CCCNC(=N)N)C(=O)N[C@@H](CCCNC(=N)N)C(=O)N[C@H](C(=O)NCC(=O)N[C@@H](CC(=O)O)C(=O)N[C@@H](CCC(=O)O)C(=O)N[C@@H](Cc1ccccc1)C(=O)O)[C@@H](C)CC (Adipoyl-IAQELRRIGDEF-OH) | – | < 50%
3 | CC[C@H](C)[C@H](NC(=O)CCCCCCCCCCN)C(=O)N[C@@H](C)C(=O)N[C@@H](CCC(N)=O)C(=O)N[C@@H](CCC(=O)O)C(=O)N[C@@H](CC(C)C)C(=O)N[C@@H](CCCNC(=N)N)C(=O)N[C@@H](CCCNC(=N)N)C(=O)N[C@H](C(=O)NCC(=O)N[C@@H](CC(=O)O)C(=O)N[C@@H](CCC(=O)O)C(=O)N[C@@H](Cc1ccccc1)C(=O)O)[C@@H](C)CC (H-[Aun]IAQELRRIGDEF-OH) | – | < 50%
4 | CCCCCC(=O)N[C@H](C(=O)N[C@@H](C)C(=O)N[C@@H](CCC(N)=O)C(=O)N[C@@H](CCC(=O)O)C(=O)N[C@@H](CC(C)C)C(=O)N[C@@H](CCCNC(=N)N)C(=O)N[C@@H](CCCNC(=N)N)C(=O)N[C@H](C(=O)NCC(=O)N[C@@H](CC(=O)O)C(=O)N[C@@H](CCC(=O)O)C(=O)N[C@@H](Cc1ccccc1)C(=O)O)[C@@H](C)CC)[C@@H](C)CC (Hexanoyl-IAQELRRIGDEF-OH) | – | < 50%
5 | CCCCC(=O)N[C@H](C(=O)N[C@@H](C)C(=O)N[C@@H](CCC(N)=O)C(=O)N[C@@H](CCC(=O)O)C(=O)N[C@@H](CC(C)C)C(=O)N[C@@H](CCCNC(=N)N)C(=O)N[C@@H](CCCNC(=N)N)C(=O)N[C@H](C(=O)NCC(=O)N[C@@H](CC(=O)O)C(=O)N[C@@H](CCC(=O)O)C(=O)N[C@@H](Cc1ccccc1)C(=O)O)[C@@H](C)CC)[C@@H](C)CC (Pentanoyl-IAQELRRIGDEF-OH) | – | < 50%
6 | CC[C@H](C)[C@H](NC(=O)CCCCCCCCCCC(=O)O)C(=O)N[C@@H](C)C(=O)N[C@@H](CCC(N)=O)C(=O)N[C@@H](CCC(=O)O)C(=O)N[C@@H](CC(C)C)C(=O)N[C@@H](CCCNC(=N)N)C(=O)N[C@@H](CCCNC(=N)N)C(=O)N[C@H](C(=O)NCC(=O)N[C@@H](CC(=O)O)C(=O)N[C@@H](CCC(=O)O)C(=O)N[C@@H](Cc1ccccc1)C(=O)O)[C@@H](C)CC ({C12 diacid}-IAQELRRIGDEF-OH) | – | < 50%
7 | CC[C@H](C)[C@H](NC(=O)COCCOCCNC(=O)COCCOCCNC(=O)CC[C@H](NC(=O)CCCCCCCCCCCCCCCCC(=O)O)C(=O)O)C(=O)N[C@@H](C)C(=O)N[C@@H](CCC(N)=O)C(=O)N[C@@H](CCC(=O)O)C(=O)N[C@@H](CC(C)C)C(=O)N[C@@H](CCCNC(=N)N)C(=O)N[C@@H](CCCNC(=N)N)C(=O)N[C@H](C(=O)NCC(=O)N[C@@H](CC(=O)O)C(=O)N[C@@H](CCC(=O)O)C(=O)N[C@@H](Cc1ccccc1)C(=O)O)[C@@H](C)CC ({C18 diacid-γGlu-AEEA-AEEA}-IAQELRRIGDEF-OH) | – | < 50%
8 | CC[C@H](C)[C@H](NC(=O)CCCCCCC(=O)O)C(=O)N[C@@H](C)C(=O)N[C@@H](CCC(N)=O)C(=O)N[C@@H](CCC(=O)O)C(=O)N[C@@H](CC(C)C)C(=O)N[C@@H](CCCNC(=N)N)C(=O)N[C@@H](CCCNC(=N)N)C(=O)N[C@H](C(=O)NCC(=O)N[C@@H](CC(=O)O)C(=O)N[C@@H](CCC(=O)O)C(=O)N[C@@H](Cc1ccccc1)C(=O)O)[C@@H](C)CC ({HOOC(CH2)6CO}-IAQELRRIGDEF-OH) | – | < 50%
9 | CC[C@H](C)[C@H](NC(=O)CCCCc1ccccc1)C(=O)N[C@@H](C)C(=O)N[C@@H](CCC(N)=O)C(=O)N[C@@H](CCC(=O)O)C(=O)N[C@@H](CC(C)C)C(=O)N[C@@H](CCCNC(=N)N)C(=O)N[C@@H](CCCNC(=N)N)C(=O)N[C@H](C(=O)NCC(=O)N[C@@H](CC(=O)O)C(=O)N[C@@H](CCC(=O)O)C(=O)N[C@@H](Cc1ccccc1)C(=O)O)[C@@H](C)CC ({Pentanoyl(5-Ph)}-IAQELRRIGDEF-OH) | – | < 50%

The next lines start with the values.

Row | IC50 [1] | inhibition [2] | Compound
10 | 4.35 µM | > 50% | CCCCCCCCCCCCCCCC(=O)N[C@@H](CCC(=O)N[C@H](C(=O)N[C@@H](C)C(=O)N[C@H](CCC(N)=O)C(=O)N[C@@H](CCC(=O)O)C(=O)N[C@@H](CC(C)C)C(=O)N[C@@H](CCCNC(=N)N)C(=O)N[C@@H](CCCNC(=N)N)C(=O)N[C@H](C(=O)NCC(=O)N[C@@H](CC(=O)O)C(=O)N[C@@H](CCC(=O)O)C(=O)N[C@@H](Cc1ccccc1)C(=O)O)[C@@H](C)CC)[C@@H](C)CC)C(=O)O
11 | 3.89 µM | > 50% | CCCCCCCCCCCCCCCCCCCC(=O)N[C@H](C(=O)N[C@@H](C)C(=O)N[C@@H](CCC(N)=O)C(=O)N[C@@H](CCC(=O)O)C(=O)N[C@@H](CC(C)C)C(=O)N[C@@H](CCCNC(=N)N)C(=O)NC(CCCNC(=N)N)C(=O)N[C@H](C(=O)NCC(=O)N[C@@H](CC(=O)O)C(=O)N[C@@H](CCC(=O)O)C(=O)N[C@@H](Cc1ccccc1)C(=O)O)[C@@H](C)CC)[C@@H](C)CC (stereo partly drawn) (Arachidoyl-IAQELR[ξR]IGDEF-OH)
12 | – | < 50% | CCCC(=O)N[C@H](C(=O)N[C@@H](C)C(=O)N[C@@H](CCC(N)=O)C(=O)N[C@@H](CCC(=O)O)C(=O)N[C@@H](CC(C)C)C(=O)N[C@@H](CCCNC(=N)N)C(=O)N[C@@H](CCCNC(=N)N)C(=O)N[C@H](C(=O)NCC(=O)N[C@@H](CC(=O)O)C(=O)N[C@@H](CCC(=O)O)C(=O)N[C@@H](Cc1ccccc1)C(=O)O)[C@@H](C)CC)[C@@H](C)CC (Butyryl-IAQELRRIGDEF-OH)
13 | 2.14 µM | > 50% | CCCCCCCCCC(=O)N[C@H](C(=O)N[C@@H](C)C(=O)N[C@@H](CCC(N)=O)C(=O)N[C@@H](CCC(=O)O)C(=O)N[C@@H](CC(C)C)C(=O)N[C@@H](CCCNC(=N)N)C(=O)N[C@@H](CCCNC(=N)N)C(=O)N[C@H](C(=O)NCC(=O)N[C@@H](CC(=O)O)C(=O)N[C@@H](CCC(=O)O)C(=O)N[C@@H](Cc1ccccc1)C(=O)O)[C@@H](C)CC)[C@@H](C)CC (Decanoyl-IAQELRRIGDEF-OH)
14 | – | < 50% | CC[C@H](C)[C@H](NC(=O)CCCC(=O)O)C(=O)N[C@@H](C)C(=O)N[C@@H](CCC(N)=O)C(=O)N[C@@H](CCC(=O)O)C(=O)N[C@@H](CC(C)C)C(=O)N[C@@H](CCCNC(=N)N)C(=O)N[C@@H](CCCNC(=N)N)C(=O)N[C@H](C(=O)NCC(=O)N[C@@H](CC(=O)O)C(=O)N[C@@H](CCC(=O)O)C(=O)N[C@@H](Cc1ccccc1)C(=O)O)[C@@H](C)CC (Glutaryl-IAQELRRIGDEF-OH)
15 | – | < 50% | CCCCCCC(=O)N[C@H](C(=O)N[C@@H](C)C(=O)N[C@@H](CCC(N)=O)C(=O)N[C@@H](CCC(=O)O)C(=O)N[C@@H](CC(C)C)C(=O)N[C@@H](CCCNC(=N)N)C(=O)N[C@@H](CCCNC(=N)N)C(=O)N[C@H](C(=O)NCC(=O)N[C@@H](CC(=O)O)C(=O)N[C@@H](CCC(=O)O)C(=O)N[C@@H](Cc1ccccc1)C(=O)O)[C@@H](C)CC)[C@@H](C)CC (Heptanoyl-IAQELRRIGDEF-OH)
16 | – | < 50% | CC[C@H](C)[C@H](NC(=O)CC(=O)O)C(=O)N[C@@H](C)C(=O)N[C@@H](CCC(N)=O)C(=O)N[C@@H](CCC(=O)O)C(=O)N[C@@H](CC(C)C)C(=O)N[C@@H](CCCNC(=N)N)C(=O)N[C@@H](CCCNC(=N)N)C(=O)N[C@H](C(=O)NCC(=O)N[C@@H](CC(=O)O)C(=O)N[C@@H](CCC(=O)O)C(=O)N[C@@H](Cc1ccccc1)C(=O)O)[C@@H](C)CC (Malonyl-IAQELRRIGDEF-OH)
17 | – | < 50% | CCCCCCCC(=O)N[C@H](C(=O)N[C@@H](C)C(=O)N[C@@H](CCC(N)=O)C(=O)N[C@@H](CCC(=O)O)C(=O)N[C@@H](CC(C)C)C(=O)N[C@@H](CCCNC(=N)N)C(=O)N[C@@H](CCCNC(=N)N)C(=O)N[C@H](C(=O)NCC(=O)N[C@@H](CC(=O)O)C(=O)N[C@@H](CCC(=O)O)C(=O)N[C@@H](Cc1ccccc1)C(=O)O)[C@@H](C)CC)[C@@H](C)CC (Octanoyl-IAQELRRIGDEF-OH)
18 | – | < 50% | CCC(=O)N[C@H](C(=O)N[C@@H](C)C(=O)N[C@@H](CCC(N)=O)C(=O)N[C@@H](CCC(=O)O)C(=O)N[C@@H](CC(C)C)C(=O)N[C@@H](CCCNC(=N)N)C(=O)N[C@@H](CCCNC(=N)N)C(=O)N[C@H](C(=O)NCC(=O)N[C@@H](CC(=O)O)C(=O)N[C@@H](CCC(=O)O)C(=O)N[C@@H](Cc1ccccc1)C(=O)O)[C@@H](C)CC)[C@@H](C)CC (Propionyl-IAQELRRIGDEF-OH)
19 | – | < 50% | CC[C@H](C)[C@H](NC(=O)CCCCCCCCCCCCC(=O)O)C(=O)N[C@@H](C)C(=O)N[C@@H](CCC(N)=O)C(=O)N[C@@H](CCC(=O)O)C(=O)N[C@@H](CC(C)C)C(=O)N[C@@H](CCCNC(=N)N)C(=O)NC(CCCNC(=N)N)C(=O)N[C@H](C(=O)NCC(=O)N[C@@H](CC(=O)O)C(=O)N[C@@H](CCC(=O)O)C(=O)N[C@@H](Cc1ccccc1)C(=O)O)[C@@H](C)CC (stereo partly drawn) ({C14 diacid}-IAQELR[ξR]IGDEF-OH)
20 | – | < 50% | Ac-IAQELRRIGDEF-OH
